Laboratory results: US12172959B2, “Mono- or di-substituted indole derivatives as dengue viral replication inhibitors” (priority 2015, dated 2024)
Where two headings read alike, the source gives them in different places.

Legend:
DENV-2 16681 strain = test: DENV-2 antiviral assay (eGFP fluorescence, Vero cells); type: cell-based, Dengue virus; settings: DENV-2 16681 eGFP, MOI 0.5, 3 days
Protocol: The antiviral activity of all the compounds of the invention was tested against the DENV-2 16681 strain which was labeled with enhanced green fluorescent protein (eGPF; Table 1). The culture medium consists of minimal essential medium supplemented with 2% of heat-inactivated fetal calf serum, 0.04% gentamycin (50 mg/mL) and 2 mM of L-glutamine. Vero cells, obtained from ECACC, were suspended in culture medium and 25 μL was added to 384-well plates (2500 cells/well), which already contain the antiviral compounds. Typically, these plates contain a 5-fold serial dilution of 9 dilution steps of the test compound at 200 times the final concentration in 100% DMSO (200 nL). […] Finally, each plate contains wells which are assigned as virus controls (containing cells and virus in the absence of compound), cell controls (containing cells in the absence of virus and compound) and medium controls (containing medium in the absence of cells, virus and compounds). To the wells assigned as medium control, 25 μL of culture medium was added instead of Vero cells. Once the cells were added to the plates, the plates were incubated for 30 minutes at room temperature to allow the cells to distribute evenly within the wells. Next, the plates were incubated in a fully humidified incubator (37° C., 5% CO2) until the next day. Then, DENV-2 strain 16681, labeled with eGFP, was added at a multiplicity of infection (MOI) of 0.5. Therefore, 15 μL of virus suspension was added to all the wells containing test compound and to the wells assigned as virus control. In parallel, 15 μL of culture medium was added to the medium and cell controls. Next, the plates were incubated for 3 days in a fully humidified incubator (37° C., 5% CO2). At the day of the read out, the eGFP fluorescence was measured using an automated fluorescence microscope at 488 nm (blue laser). Using an in-house LIMS system, inhibition dose response curves for each compound were calculated and the half maximal effective concentration (EC50) was determined. Therefore, the percent inhibition (I) for every test concentration is calculated using the following formula: I=100*(ST−SCC)/(SVC−SCC); ST, SCC and SVC are the amount of eGFP signal in the test compound, cell control and virus control wells, respectively. The EC50 represents the concentration of a compound at which the virus replication is inhibited with 50%, as measured by a 50% reduction of the eGFP fluorescent intensity compared to the virus control. The EC50 is calculated using linear interpolation.

in vitro [1] = settings: African green monkey
DENV-3 strain H87 = test: Tetravalent RT-qPCR assay Protocol A, serotype 3; type: cell-based; settings: Dengue virus, DENV3, 72 h, RT-qPCR serotype 3 H87, Vero cells, day 3
Protocol: (§1) The antiviral activity of the compounds of the invention was tested against DENV-1 strain TC974#666 (NCPV; Table 6), DENV-2 strain 16681 (Table 7), DENV-3 strain H87 (NCPV; Table 8) and DENV-4 strains H241 (NCPV; Table 9A) and SG/06K2270DK1/2005 (Eden; Table 9B) in a RT-qPCR assay. Therefore, Vero cells were infected with either DENV-1, or -2, or -3, or -4 in the presence or absence of test compounds. At day 3 post-infection, the cells were lysed and cell lysates were used to prepare cDNA of both a viral target (the 3′UTR of DENV; Table 2) and a cellular reference gene (β-actin, Table 2). Subsequently, a duplex real time PCR was performed on a Lightcycler480 instrument. The generated Cp value is inversely proportional to the amount of RNA expression of these targets. Inhibition of DENV replication by test compound results in a shift of Cp's for the 3′UTR gene. On the other hand, if a test compound is toxic to the cells, a similar effect on β-actin expression will be observed. The comparative ΔΔCp method is used to calculate EC50, which is based on the relative gene expression of the target gene (3′UTR) normalized with the cellular housekeeping gene (β-actin).
(§2) The culture medium consisted of minimal essential medium supplemented with 2% of heat-inactivated fetal calf serum, 0.04% gentamycin (50 mg/mL) and 2 mM of L-glutamine. Vero cells, obtained from ECACC, were suspended in culture medium and 75 μL/well was added in 96-well plates (10000 cells/well), which already contain the antiviral compounds. […] In addition, each plate contains wells which are assigned as virus controls (containing cells and virus in the absence of compound) and cell controls (containing cells in the absence of virus and compound). Once the cells were added in the plates, the plates were incubated in a fully humidified incubator (37° C., 5% CO2) until the next day. Dengue viruses serotype-1, 2, 3 and 4 were diluted in order to obtain a Cp of ˜22-24 in the assay. Therefore, 25 μL of virus suspension was added to all the wells containing test compound and to the wells assigned as virus control. In parallel, 25 μL of culture medium was added to the cell controls. Next, the plates were incubated for 3 days in a fully humidified incubator (37° C., 5% CO2). After 3 days, the supernatant was removed from the wells and the cells were washed twice with ice-cold PBS (˜100 μL). The cell pellets within the 96-well plates were stored at −80° C. for at least 1 day. Next, RNA was extracted using the Cells-to-CT™ lysis kit, according to the manufacturer's guideline (Life Technologies). The cell lysates can be stored at −80° C. or immediately used in the reverse transcription step.
(§3) In preparation of the reverse transcription step, mix A (table 3A) was prepared and 7.57 μL/well was dispensed in a 96-well plate. After addition of 5 μL of the cell lysates, a five minute denaturation step at 75° C. was performed (table 3B). Afterwards, 7.43 μL of mix B was added (table 3C) and the reverse transcription step was initiated (table 3D) to generate cDNA.
(§4) Finally, a RT-qPCR mix was prepared, mix C (table 4A), and 22.02 μL/well was dispensed in 96-well LightCycler qPCR plates to which 3 μL of cDNA was added and the qPCR was performed according to the conditions in table 4B on a LightCycler 480.
(§5) Using the LightCycler software and an in-house LIMS system, dose response curves for each compound were calculated and the half maximal effective concentration (EC50) and the half maximal cytotoxic concentration (CC50) were determined.

in vitro [2] = type: cell-based; settings: African green monkey, CC50
Protocol: as §1, §2, §5

DENV-1 strain TC974#666 = test: Tetravalent RT-qPCR assay Protocol A, serotype 1; type: cell-based; settings: Dengue virus, DENV1, 72 h, RT-qPCR serotype 1 TC974#666, Vero cells, day 3
Protocol: as §1, §2, §3, §4, §5

DENV-4 strain H241 = test: Tetravalent RT-qPCR assay Protocol A, serotype 4 H241; type: cell-based; settings: Dengue virus
Protocol: as §1, §2, §3, §4, §5

[3] = test system: DENV-4 strain SG/06K2270DK1/2005 (Eden); test: Tetravalent RT-qPCR assay Protocol A, serotype 4 EDEN; type: cell-based; settings: Dengue virus, DENV4, Vero, 72 h
Protocol: as §1, §2, §3, §4, §5

DENV-2 strain 16681 = test: Tetravalent RT-qPCR assay Protocol A, serotype 2; type: cell-based; settings: Dengue virus
Protocol: as §1, §2, §3, §4, §5

Vero cells = settings: African green monkey
[4] = Dengue virus, DENV2, Vero, 72 h
[5] = DENV4, 72 h, Protocol A, RT-qPCR serotype 4 H241, Vero cells, day 3, read-out: EC50
[6] = DENV2, 72 h, Protocol A, RT-qPCR serotype 2 16681, Vero cells, day 3, read-out: EC50

SMILES: COc1cc(NC(C(=O)c2c[nH]c3c(C)c(F)ccc23)c2ccc(Cl)cc2OC)cc(S(C)(=O)=O)c1 (racemic) [Compound 2, 2-(4-chloro-2-methoxyphenyl)-1-(6-fluoro-7-methyl-1H-indol-3-yl)-2-((3-methoxy-5-(methylsulfonyl)phenyl)amino)ethanone]
- EC50 (DENV-2 16681 strain; [4]): 0.6 nM
- CC50 (in vitro [1]): 5000 nM

SMILES: COc1cc(NC(C(=O)c2c[nH]c3cc(OC)ccc23)c2ccc(Cl)cc2OC)cc(S(C)(=O)=O)c1 (racemic) [Compound 3, 2-(4-chloro-2-methoxyphenyl)-1-(6-methoxy-1H-indol-3-yl)-2-((3-methoxy-5-(methylsulfonyl)phenyl)amino)ethanone]
- EC50 (DENV-2 16681 strain; [4]): 0.58 nM
- CC50 (in vitro [1]): > 11000 nM

SMILES: COc1cc(NC(C(=O)c2c[nH]c3cc(OC)c(C)cc23)c2ccc(Cl)cc2OC)cc(S(C)(=O)=O)c1 (racemic) [Compound 4, 2-(4-chloro-2-methoxyphenyl)-2-((3-methoxy-5-(methyl-sulfonyl)phenyl)amino)-1-(6-methoxy-5-methyl-1H-indol-3-yl)ethanone]
- EC50 (DENV-2 16681 strain; [4]): 0.39 nM
- CC50 (in vitro [1]): 5900 nM

SMILES: COc1cc(NC(C(=O)c2c[nH]c3cc(OC)c(F)cc23)c2ccc(Cl)cc2OC)cc(S(C)(=O)=O)c1 (racemic) [Compound 5, 2-(4-chloro-2-methoxyphenyl)-1-(5-fluoro-6-methoxy-1H-indol-3-yl)-2-((3-methoxy-5-(methylsulfonyl)phenyl)amino)ethanone]
- EC50 (DENV-2 16681 strain; [4]): 0.62 nM
- CC50 (in vitro [1]): 5500 nM

SMILES: COc1cc(NC(C(=O)c2c[nH]c3cc(F)c(C)cc23)c2ccc(Cl)cc2OC)cc(S(C)(=O)=O)c1 (racemic) [Compound 7, 2-(4-chloro-2-methoxyphenyl)-1-(6-fluoro-5-methyl-1H-indol-3-yl)-2-((3-methoxy-5-(methylsulfonyl)phenyl)amino)ethanone]
- EC50 (DENV-2 16681 strain; [4]): 0.47 nM
- CC50 (in vitro [1]): 3200 nM

SMILES: COc1cc(NC(C(=O)c2c[nH]c3ccc(C(F)(F)F)cc23)c2ccc(Cl)cc2OC)cc(S(C)(=O)=O)c1 (racemic) [Compound 8, 2-(4-chloro-2-methoxyphenyl)-2-((3-methoxy-5-(methyl-sulfonyl)phenyl)amino)-1-(5-(trifluoromethyl)-1H-indol-3-yl)ethanone]
- EC50 (DENV-2 16681 strain; [4]): 0.13 nM
- CC50 (in vitro [1]): 2900 nM

SMILES: COc1cc(NC(C(=O)c2c[nH]c3ccc(OC(F)(F)F)cc23)c2ccc(Cl)cc2OC)cc(S(C)(=O)=O)c1 (racemic) [Compound 9, 2-(4-chloro-2-methoxyphenyl)-2-((3-methoxy-5-(methyl-sulfonyl)phenyl)amino)-1-(5-(trifluoromethoxy)-1H-indol-3-yl)ethanone]
- EC50 (DENV-2 16681 strain; [4]): 0.074 nM
- CC50 (in vitro [1]): 3100 nM

SMILES: COc1cc(NC(C(=O)c2c[nH]c3cc(OC)ccc23)c2ccc(Cl)cc2OC)cc(S(C)(=O)=O)c1 (single isomer, unassigned) [Compound 3A, 2-(4-chloro-2-methoxyphenyl)-1-(6-methoxy-1H-indol-3-yl)-2-((3-methoxy-5-(methylsulfonyl)phenyl)amino)ethanone]
- EC50 (DENV-2 16681 strain): 0.25 nM
- EC50 (DENV-3 strain H87): 48 nM
- CC50 at 3 days (in vitro [2]): 5500 nM
- CC50 (in vitro [1]): 7200 nM
- EC50 (DENV-1 strain TC974#666): 4.2 nM
- EC50 (DENV-4 strain H241; [5]): 110 nM
- EC50 [3]: 3 nM
- EC50 (DENV-2 strain 16681; [6]): 0.3 nM

SMILES: COc1cc(NC(C(=O)c2c[nH]c3ccc(C(F)(F)F)cc23)c2ccc(Cl)cc2OC)cc(S(C)(=O)=O)c1 (single isomer, unassigned) [Compound 8B, 2-(4-chloro-2-methoxyphenyl)-2-((3-methoxy-5-(methyl-sulfonyl)phenyl)amino)-1-(5-(trifluoromethyl)-1H-indol-3-yl)ethanone]
- EC50 (DENV-2 16681 strain): 0.069 nM
- EC50 (DENV-3 strain H87): 5.8 nM
- CC50 at 3 days (in vitro [2]): 1900 nM
- EC50 (DENV-1 strain TC974#666): 0.45 nM
- EC50 (DENV-4 strain H241; [5]): 15 nM
- CC50 (Vero cells): 3400 nM
- EC50 (DENV-2 strain 16681; DENV2, Vero, 72 h): 0.31 nM

SMILES: COc1cc(NC(C(=O)c2c[nH]c3ccc(OC(F)(F)F)cc23)c2ccc(Cl)cc2OC)cc(S(C)(=O)=O)c1 (single isomer, unassigned) [Compound 9A, 2-(4-chloro-2-methoxyphenyl)-2-((3-methoxy-5-(methyl-sulfonyl)phenyl)amino)-1-(5-(trifluoromethoxy)-1H-indol-3-yl)ethanone]
- EC50 (DENV-2 16681 strain): 0.067 nM
- EC50 (DENV-3 strain H87): 2.1 nM
- CC50 at 3 days (in vitro [2]): 1700 nM
- EC50 (DENV-1 strain TC974#666): 0.11 nM
- EC50 (DENV-4 strain H241; [5]): 12 nM
- CC50 (Vero cells): 2900 nM
- EC50 (DENV-2 strain 16681; [6]): 0.057 nM

SMILES: COc1cc(NC(C(=O)c2c[nH]c3c(C)cc(OC(F)(F)F)cc23)c2ccc(Cl)cc2OC)cc(S(C)(=O)=O)c1 (single isomer, unassigned) [Compound 11A, 2-(4-chloro-2-methoxyphenyl)-2-((3-methoxy-5-(methylsulfonyl)phenyl)amino)-1-(7-methyl-5-(trifluoromethoxy)-1H-indol-3-yl)ethanone]
- EC50 (DENV-2 16681 strain): 0.085 nM
- EC50 (DENV-3 strain H87): 1.2 nM
- CC50 at 3 days (in vitro [2]): > 2500 nM
- EC50 (DENV-1 strain TC974#666): 0.13 nM
- EC50 (DENV-4 strain H241; DENV4, Vero, 72 h): 11 nM
- CC50 (Vero cells): 2600 nM
- EC50 (DENV-2 strain 16681; [6]): 0.051 nM
